{"source": "patent US20240033237A1", "about": "“USE OF A-KETOGLUTARATE IN MANUFACTURE OF MEDICAMENT” (TONGJI UNIVERSITY, priority 2019, published 2024)", "key": {"articular cartilage": {"test_system": "articular cartilage", "test": "Mouse model of knee osteoarthritis (DMM), intra-articular injection, Safranin-O/fast green staining and OARSI score", "format": "in vivo, C57BL/6 mice", "settings": "8 weeks after DMM surgery, once a week, 5 times", "description": "Male C57BL/6 mice (n=30) were purchased from Shanghai Slac laboratory animal Co., Ltd. and reared to 8 weeks of age. The animal experimental operation method was reviewed and approved by the Ethics Committee of Tongji University School of Medicine. Male C57BL/6 mice reared to 8 weeks of age were anaesthetized, and a longitudinal incision was made in the medial side of the knee joint. The articular cavity was opened along the medial side of the patellar ligament, the fat pad in the intercondylar area was bluntly separated, and the meniscus tibial ligament connecting the medial meniscus was found and transected. The incision was closed after hemostasis by compression, and the mice were continued to be fed. The mice were anesthetized and sacrificed at 4, 8 and 12 weeks after surgery (n=8 for each group), and the knee joints were isolated for histological examination, forming the treatment group. Male C57BL/6 mice reared to 8 weeks of age were anaesthetized, and a longitudinal incision was made in the medial side of the knee joint. […] The damage degree of articular cartilage was observed by Safranin-O/ fast green staining and quantitatively evaluated by OARSI score. […]"}, "chondrocytes": {"test_system": "chondrocytes", "test": "Catabolic phenotype of IL-1β-stimulated mouse chondrocytes (whole-genome sequencing, q-PCR, western blot)", "format": "cell-based", "procedure": "Mouse chondrocytes were obtained from 7-day-old C57BL/6 mice (Shanghai Slac laboratory animal Co., Ltd.), and the procedure was as follows: under aseptic surgical conditions, bilateral knee cartilages of C57 mice were carefully stripped and digested with 0.2% neutral collagenase (Serva, Germany) for 8 h; cell precipitates were obtained by centrifugation, and the cells were resuspended in modified Eagle medium (DMEM) (Gibco, USA) containing 10% FBS, inoculated in culture dishes, and cultured with high-sugar DMEM medium (containing 10% FBS, 100 U/mL penicillin and 100 mg/L streptomycin) at 37° C. in a 5% CO2 constant temperature incubator. The medium was changed for the first time at 48 h. […] The cells were collected by centrifugation and resuspended, and the concentration was adjusted for inoculation in culture dishes. The cells were subcultured by the above method, and the obtained cells were labeled as P1, P2, P3 generations, etc.\n(2) Real-Time Fluorescent Quantitative PCR (Real Time q-PCR) Analysis • 1) The P1 generation mouse chondrocytes cultured in Embodiment 1 were used, the culture medium was sucked out from the culture dish, and the cells were washed once with PBS. • 2) Extraction of total RNA • 1. chloroform (⅕ volume of RNAiso Plus) was added to the homogenate lysate, the cover of the centrifuge tube was closed tightly, and the centrifuge tube was shaken violently by hand for 15 seconds. After the solution is fully emulsified (without phase separation phenomenon), the centrifuge tube was allowed to stand at room temperature for 5 minutes. • 2. the centrifuge tube was centrifuged at 12000 g under 4° C. for 5 minutes. • 3. the centrifuge tube was carefully taken out from the centrifugal machine, at this time the homogenate was divided into three layers: a colorless supernatant, a white protein layer in the middle, and a lower organic phase with color. […] Precipitate usually occurs at the bottom of a test tube after centrifugation.\nOn ice, SYBR Premix Ex Taq, upstream and downstream primers of catabolic and synthetic genes of chondrocytes, ROX Reference Dye, cDNA template and dH2O were added into a test tube. After being mixed evenly, the mixture was evenly divided into PCR tubes. The PCR tubes were placed in a Q-PCR instrument to detect the product.\nP1 generation mouse chondrocytes cultured in Embodiment 1 were subjected to western blot analysis through operations including the following: • 1. Collecting of protein samples: The culture medium was sucked out, and the cells were washed twice with PBS at 4° C. and then dried. 100 μl of cell lysate was added to each well, the cells were lysed on ice for 10 min, and collected into a 1.5 ml centrifuge tube. […] The protein concentration was determined by the BCA Protein Quantification Kit. […]"}}}
{"smiles": "COC(=O)CCC(=O)C(=O)OC", "note": "[α-KG, dimethyl-α-ketoglutarate]", "values": [{"measurement": "OARSI score, damage degree of articular cartilage", "setting": "articular cartilage", "result": "significantly inhibit the progression of osteoarthritis"}, {"measurement": "cartilage damage / progression of osteoarthritis (Safranin O/fast green histology)", "setting": "articular cartilage; DMM+αKG group vs DMM group", "result": "no significant cartilage damage"}, {"measurement": "gene and protein expressions of catabolic phenotypic genes MMP3, MMP13, ADAMTS5, NOS2 at different time periods", "setting": "chondrocytes; q-PCR and western blot, 6 h, 12 h, 24 h, 36 h, 10 ng/ml IL-1β + 7 mM α-KG", "result": "could inhibit the gene and protein expressions"}, {"measurement": "expression of cartilage catabolic phenotypic genes MMP3, MMP13, ADAMTS5, NOS2", "setting": "chondrocytes; q-PCR, 24 h, 10 ng/ml IL-1β + 7 mM α-KG", "result": "inhibit the expression"}, {"measurement": "protein expression of cartilage catabolic phenotypic genes MMP3, MMP13, ADAMTS5, NOS2", "setting": "chondrocytes; western blot, 24 h, 10 ng/ml IL-1β + 7 mM α-KG", "result": "inhibited the protein expression"}, {"measurement": "expressions of catabolic phenotypes (metalloproteases MMP2, MMP3, MMP8, MMP9, MMP12, MMP13, MMP27; aggrecanases ADAMTS5, 7, 12, 15, 16, 17; NOS2) of chondrocytes", "setting": "chondrocytes; whole-genome sequencing, 10 ng/ml IL-1β + 7 mM α-KG vs IL-1β group", "result": "suppressed"}]}
